Experimental data published in US20040142972A1, “CNS target modulators” (Hypnion, Inc., priority 2001, published 2004).
Numbering of substitutions follows the chain as printed. pIC50, pKi: −log10 of the molar value. Counter-ions that a name gives are not always drawn. Like-named read-outs stand apart in the source and are kept apart here.

Tests used:
Male Wistar rats = experiment: Sleep-wakefulness, locomotor activity and body temperature monitoring (SCORE-2000) in rats
muscarinic1 binding site = target: T1, muscarinic1 binding site (Bos taurus, UniProt F1N5C5); experiment: biochemical
T1 sequence (F1N5C5 1-460): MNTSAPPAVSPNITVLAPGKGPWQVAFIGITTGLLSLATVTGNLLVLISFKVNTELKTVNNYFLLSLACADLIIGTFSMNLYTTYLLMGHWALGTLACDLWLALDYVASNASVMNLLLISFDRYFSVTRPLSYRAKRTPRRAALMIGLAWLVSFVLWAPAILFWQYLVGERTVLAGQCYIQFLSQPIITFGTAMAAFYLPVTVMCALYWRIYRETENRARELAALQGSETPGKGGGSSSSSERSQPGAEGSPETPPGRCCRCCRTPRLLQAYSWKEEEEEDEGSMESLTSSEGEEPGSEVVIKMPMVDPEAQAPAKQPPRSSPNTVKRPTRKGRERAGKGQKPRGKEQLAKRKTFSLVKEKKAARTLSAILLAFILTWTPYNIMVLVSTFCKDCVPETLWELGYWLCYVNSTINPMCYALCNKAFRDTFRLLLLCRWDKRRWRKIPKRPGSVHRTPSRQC

[1] = target: T2, cloned muscarinic - M1 binding site (Homo sapiens, UniProt P11229); experiment: Muscarinic M1 binding assay, [3H]-Scopolamine N-Methyl Chloride, human recombinant expressed in CHO cells; conditions: for Ki: Table 6, human recombinant, read-out: Receptor Binding Data (Ki nM) M1
T2 construct: expressed in transfected cells; host or cells: CHO cells
T2 sequence (P11229 1-460): T1 sequence (F1N5C5 1-460) with A206T, T265A, A315T, R331K, E335D

histamine receptor, H1 = target: T3, histamine receptor, H1 (Bos taurus, UniProt P30546); experiment: H1 binding assay, displacement of [3H]Pyrilamine, bovine cerebellar membranes; conditions: for Ki: Table 6, read-out: Receptor Binding Data (Ki nM) H1
T3 construct: from tissue; host or cells: bovine cerebellar membranes (per earlier reading)

[2] = target: T4, cloned muscarinic - M3 binding site (Homo sapiens, UniProt P20309); experiment: Muscarinic M3 binding assay, [3H]-Scopolamine N-Methyl Chloride, human recombinant expressed in CHO cells; conditions: for Ki: Table 6, human recombinant, read-out: Receptor Binding Data (Ki nM) M3
T4 construct: expressed in transfected cells; host or cells: CHO cells

[3] = target: T5, cloned muscarinic - M2 binding site (Homo sapiens, UniProt P08172); experiment: Muscarinic M2 binding assay, [3H]-Scopolamine N-Methyl Chloride, human recombinant expressed in CHO cells; conditions: for Ki: Table 6, human recombinant, read-out: Receptor Binding Data (Ki nM) M2
T5 construct: expressed in transfected cells; host or cells: CHO cells
T5 sequence (P08172 1-466): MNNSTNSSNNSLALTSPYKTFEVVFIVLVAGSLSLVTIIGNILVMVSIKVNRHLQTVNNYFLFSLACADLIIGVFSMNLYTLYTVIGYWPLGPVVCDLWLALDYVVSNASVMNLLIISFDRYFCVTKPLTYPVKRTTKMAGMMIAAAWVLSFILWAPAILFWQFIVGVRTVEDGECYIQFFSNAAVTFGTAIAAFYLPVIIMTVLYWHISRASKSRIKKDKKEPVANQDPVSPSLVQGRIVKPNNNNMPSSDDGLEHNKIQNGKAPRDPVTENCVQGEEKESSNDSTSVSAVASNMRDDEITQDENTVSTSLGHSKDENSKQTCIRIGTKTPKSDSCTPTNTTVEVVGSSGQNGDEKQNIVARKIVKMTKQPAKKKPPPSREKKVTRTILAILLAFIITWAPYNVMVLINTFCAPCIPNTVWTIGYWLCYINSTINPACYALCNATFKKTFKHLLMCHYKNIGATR

[4] = Series 11 compounds, Table 5, unit inferred, receptor source not given
[5] = Series 11 compounds, Table 5, unit inferred, receptor source not given, read-out: M1 Ki
[6] = Series 11 compounds, Table 5, unit inferred, read-out: H1 Ki
[7] = Series 11 compounds, Table 5, unit inferred, receptor source not given, read-out: M3 Ki
[8] = Series 11 compounds, Table 5, unit inferred, receptor source not given, read-out: M2 Ki
[9] = Series 11 compounds, Table 5, unit inferred

T4 sequence (P20309 whole entry): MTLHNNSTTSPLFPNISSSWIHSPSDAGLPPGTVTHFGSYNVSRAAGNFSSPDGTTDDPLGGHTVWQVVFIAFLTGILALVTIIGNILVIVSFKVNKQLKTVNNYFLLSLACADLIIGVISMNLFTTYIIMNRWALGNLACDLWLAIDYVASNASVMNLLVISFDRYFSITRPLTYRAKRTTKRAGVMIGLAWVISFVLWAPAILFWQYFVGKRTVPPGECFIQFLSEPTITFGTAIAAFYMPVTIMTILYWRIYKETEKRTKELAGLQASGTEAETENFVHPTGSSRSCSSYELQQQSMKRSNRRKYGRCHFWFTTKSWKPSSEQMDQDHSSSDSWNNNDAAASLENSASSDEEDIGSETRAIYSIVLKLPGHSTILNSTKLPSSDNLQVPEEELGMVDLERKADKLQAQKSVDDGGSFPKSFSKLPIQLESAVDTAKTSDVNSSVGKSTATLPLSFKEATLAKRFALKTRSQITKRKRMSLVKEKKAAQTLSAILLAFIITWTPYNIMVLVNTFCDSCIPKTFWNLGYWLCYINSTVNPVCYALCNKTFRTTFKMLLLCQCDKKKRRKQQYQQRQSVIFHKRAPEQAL
T3 sequence (P30546 whole entry): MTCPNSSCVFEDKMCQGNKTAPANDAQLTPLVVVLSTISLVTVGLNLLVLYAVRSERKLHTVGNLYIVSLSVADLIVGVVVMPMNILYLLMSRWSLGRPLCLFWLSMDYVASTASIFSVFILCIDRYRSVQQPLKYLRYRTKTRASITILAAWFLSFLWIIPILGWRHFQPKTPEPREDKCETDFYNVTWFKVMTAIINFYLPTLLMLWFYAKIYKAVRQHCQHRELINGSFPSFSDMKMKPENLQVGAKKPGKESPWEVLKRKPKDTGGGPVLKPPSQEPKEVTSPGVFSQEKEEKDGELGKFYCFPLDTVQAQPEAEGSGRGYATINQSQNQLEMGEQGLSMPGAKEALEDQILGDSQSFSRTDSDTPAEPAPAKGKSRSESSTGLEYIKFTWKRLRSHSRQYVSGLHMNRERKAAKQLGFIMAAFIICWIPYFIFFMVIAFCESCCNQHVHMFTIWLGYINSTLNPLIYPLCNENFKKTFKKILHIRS

Cc1ccc(-c2nc3ccc(C)cn3c2CC(=O)N(C)C)cc1 [Ambien, Zolpidem, reference compound]
Motor Inhibition (Male Wistar rats; 30 mg/kg IP, at CT-18, rats): YES | REM Inhibition (Male Wistar rats; 30 mg/kg IP, at CT-18, rats): YES | Rebound Insomnia (Male Wistar rats; 30 mg/kg IP, at CT-18, rats): YES

CN1[C@@H]2CC[C@H]1C[C@@H](OC(=O)C(CO)c1ccccc1)C2 (stereo partly drawn) [Atropine]
pKi (muscarinic1 binding site): 9.40

O=C(O)CCN1CCC(OC(c2ccccc2)c2ccccc2)CC1 [Compound 6a, 3-[4-(dipbenylmethoxy)piperidin-1-yl]propanoic acid hydrochloride]
Ki [1]: > 10000 nM | Ki (histamine receptor, H1): 56.1 nM | Ki [2]: 8900 nM | Ki [3]: > 10000 nM

O=C(O)CN1CCC(=C2c3ccccc3COc3ccccc32)CC1 [Compound 7a]
Ki (histamine receptor, H1): 55.1 nM

O=C(O)CCN1CCC(=C2c3ccccc3COc3ccccc32)CC1 [Compound 8a]
Ki [1]: > 10000 nM | Ki (histamine receptor, H1): 62.5 nM | Ki [2]: > 10000 nM | Ki [3]: > 10000 nM

O=C(O)CCN1CCC(=C(c2ccccc2)c2ccccc2)CC1 [Compound 11a]
pIC50 [1, 4]: < 5.00 | pKi [1, 5]: < 5.00 | pKi (histamine receptor, H1; [6]): 6.92 | pIC50 [2, 4]: < 5.00 | pKi [2, 7]: < 5.00 | pIC50 [3, 4]: < 5.00 | pKi [3, 8]: < 5.00

CC(C)OC(=O)CCN1CCC(=C(c2ccccc2)c2ccccc2)CC1 [Compound 11d, Isopropyl 3-[4-(diphenylmethylidene)piperidin-1-yl]propanoate]
pIC50 [1, 4]: 5.10 | pKi [1, 5]: 6.16 | pKi (histamine receptor, H1; [6]): 6.83 | pIC50 [2, 4]: 5.22 | pKi [2, 7]: 5.57 | pIC50 [3, 4]: 6.08 | pKi [3, 8]: 6.57

CC(C)COC(=O)CCN1CCC(=C(c2ccccc2)c2ccccc2)CC1 [Compound 11e, Isobutyl 3-[4-(diphenylmethylidene)piperidin-1-yl]propanoate]
pIC50 [1, 4]: 5.42 | pKi [1, 5]: 6.54 | pKi (histamine receptor, H1; [6]): 6.55 | pIC50 [2, 4]: 5.59 | pKi [2, 7]: 6.15 | pIC50 [3, 4]: 5.45 | pKi [3, 8]: 5.94

O=C(CCN1CCC(=C(c2ccccc2)c2ccccc2)CC1)OC1CCCC1.O=C(O)C(=O)O [Compound 11f, Cyclopentyl 3-[4-(diphenylmethylidene)piperidin-1-yl]propanoate, oxalic acid salt]
cumulative effect on total sleep time (TST) during the initial 5 hours post-treatment, relative to baseline (Male Wistar rats; 11f 30 mg/kg versus Zolpidem 10 mg/kg, rats, FIG. 1(b)): induced more TST than Zolpidem | locomotor activity (Male Wistar rats; male Wistar rats, IP at CT-18, 10 and 30 mg/kg): reduction in locomotor activity | sleep continuity, as assessed by sleep bout length (Male Wistar rats; male Wistar rats, IP at CT-18, 10 and 30 mg/kg, relative to vehicle control): increased sleep continuity | total sleep time (Male Wistar rats; male Wistar rats, IP at CT-18, both 30 mg/kg and 10 mg/kg): significantly increased total sleep time for 3 hours post-treatment | soporific effects (nonREM sleep time, sleep continuity) (Male Wistar rats; male Wistar rats, intraperitoneal bolus at CT-18, 11f 30 and 10 mg/kg, 6f and 15f 30 mg/kg): robust soporific effects | pIC50 [1, 4]: 5.66 | pKi [1, 5]: 6.77 | pKi (histamine receptor, H1; [6]): 6.38

O=C(CCN1CCC(=C(c2ccccc2)c2ccccc2)CC1)O[C@H]1CCOC1 [Compound 11g]
pIC50 (histamine receptor, H1; [9]): 6.71 | pKi (histamine receptor, H1; [6]): 7.06

O=C(CCN1CCC(=C(c2ccccc2)c2ccccc2)CC1)OC1CCOC1 (stereo not drawn) [Compound 11h]
pIC50 [1, 4]: 5.65 | pKi [1, 5]: 6.76 | pIC50 (histamine receptor, H1; [9]): 6.70 | pKi (histamine receptor, H1; [6]): 7.05 | pIC50 [2, 4]: 5.66 | pKi [2, 7]: 6.22 | pIC50 [3, 4]: 5.67 | pKi [3, 8]: 6.16

O=C(CCN1CCC(=C(c2ccccc2)c2ccccc2)CC1)OC1CCOCC1 [Compound 11i]
pIC50 [1, 4]: 6.66 | pKi [1, 5]: 7.77 | pIC50 (histamine receptor, H1; [9]): 6.70 | pKi (histamine receptor, H1; [6]): 7.06 | pIC50 [2, 4]: 5.63 | pKi [2, 7]: 5.99 | pIC50 [3, 4]: 6.66 | pKi [3, 8]: 7.14

Cc1ccc(/C(=C\CN2CCCC2)c2cccc(C(=O)O)n2)cc1 [Compound 16a]
Ki [1]: > 10000 nM | Ki [2]: > 10000 nM | pKi [3]: < 5.00

O=C(O)CCCN1CCC(OC(c2ccccc2)c2ccccc2)CC1 [Compound 53a]
Ki [1]: > 10000 nM | Ki (histamine receptor, H1): 16.1 nM | Ki [2]: > 10000 nM | Ki [3]: > 10000 nM

O=C(O)CCCN1CCC(=C2c3ccccc3COc3ccccc32)CC1 [Compound 73a]
Ki [1]: > 10000 nM | Ki (histamine receptor, H1): 42.8 nM | Ki [2]: > 10000 nM | Ki [3]: > 10000 nM

CC(C)(CN1CCC(=C2c3ccccc3COc3ccccc32)CC1)C(=O)O [Compound 74a]
Ki [1]: > 10000 nM | Ki (histamine receptor, H1): 109 nM | Ki [2]: > 10000 nM | Ki [3]: > 10000 nM

CC(C)(CCN1CCC(=C2c3ccccc3COc3ccccc32)CC1)C(=O)O [Compound 75a]
Ki [1]: > 10000 nM | Ki (histamine receptor, H1): 47.9 nM | Ki [2]: > 10000 nM | Ki [3]: 3330 nM

CN(C)CCCSC(=N)N [Dimaprit, reference compound]
pKi (histamine receptor, H1; reference compounds, bovine cerebellar membranes, [3H]Pyrilamine 2.0 nM, read-out: Ki): < 5.00

COc1ccccc1CNCCCCCCNCCCCCCCCNCCCCCCNCc1ccccc1OC [Methoctramine, reference compound]
pKi [1]: 7.53 | pKi ([2]; reference compounds, M3 human recombinant in CHO cells, read-out: Ki): 6.15

Cc1scc2c1N(C(=O)CN1CCN(C)CC1)c1ccccc1NC2=O [Telenzepine]
pKi (muscarinic1 binding site): 7.19

CC(C)OC(=O)CN1CCC(=C2c3ccccc3COc3ccccc32)CC1 [dox7d-oxalate]
Ki [1]: > 10000 nM | Ki (histamine receptor, H1): 198 nM | Ki [2]: > 10000 nM | Ki [3]: > 10000 nM
